Experimental data reported in article PMC3115046, “Analyzing Airway Inflammation with Chemical Biology: Dissection of Acidic Mammalian Chitinase Function with a Selective Drug-like Inhibitor” (Chemistry & Biology, 2011).
Several values for one entry are separate records, joined by “and”; a condition that tells them apart may be missing. Equal values may be shown once. Read-outs that look alike come from different tables or passages of the source.

Tests used:
recombinant mAMCase = biological target: T1, recombinant mAMCase (Mus musculus, UniProt Q91XA9); assay: Recombinant mAMCase (COS-7 cell-free supernatant) chitinase activity assay; type: biochemical; details: 10 min at 37°C, read-out: IC50 against recombinant mAMCase
T1 construct: The full-length-coding region of mAMCase was amplified using a lung cDNA template; V5/His; made in house; cell-free, serum-free supernatant used as enzyme source
T1 sequence (Q91XA9 22-473): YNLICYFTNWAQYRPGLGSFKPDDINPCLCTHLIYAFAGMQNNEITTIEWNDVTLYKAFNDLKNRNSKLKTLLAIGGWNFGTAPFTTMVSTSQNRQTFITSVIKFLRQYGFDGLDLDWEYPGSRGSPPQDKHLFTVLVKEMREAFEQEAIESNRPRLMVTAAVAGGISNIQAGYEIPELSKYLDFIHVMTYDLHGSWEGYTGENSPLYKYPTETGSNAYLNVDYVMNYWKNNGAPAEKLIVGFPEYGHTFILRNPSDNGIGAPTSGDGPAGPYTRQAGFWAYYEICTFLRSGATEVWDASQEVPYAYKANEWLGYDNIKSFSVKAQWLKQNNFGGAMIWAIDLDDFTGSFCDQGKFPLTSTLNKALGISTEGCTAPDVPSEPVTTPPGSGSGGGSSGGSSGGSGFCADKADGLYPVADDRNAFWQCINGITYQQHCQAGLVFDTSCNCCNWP
Protocol: Chitinase activity was determined using a fluorescent 4-methylumbelliferyl (4-MU) substrate. […] Chitinase activity is measured relative to the amount of substrate hydrolysed/hr/mL sample.
The full-length-coding region of mAMCase was amplified using a lung cDNA template. The cDNA fragment was directionally cloned into pcDNA3.1 (Invitrogen), to generate a V5/His tagged plasmid. TOP10 competent cells were transformed with the AMCase plasmid and sequence confirmed. Mammalian COS-7 cells were transfected with AMCase-pcDNA3.1 plasmid using Lipofectamine 2000 (Invitrogen). COS-7 cell supernatants were screened for AMCase protein by western blot and chitinase activity. A stable AMCase-expressing cell line was generated using G418 selection medium (RPMI).
Chitinase activity of hAMCase, lung homogenates, or AMCase COS-7 cell supernatants (serum-free) were determined using 4-methylumbelliferyl-β-D-N,N′,N″-triacetylchitotrioside and 4-methylumbelliferyl-β-D-N,N′,N″-triacetylchitobioside, as described. Samples were incubated with substrate (0.022 mM in 100 mM citric acid, 200 mM sodium phosphate buffer [pH 5.2]) in a final volume of 50 μL. […] Liberated 4-methlyumberlliferone was quantified using a microplate fluorometer (excitation 360 nm/emission 440 nm). Ki and IC50 values were determined in the presence of different concentrations of inhibitor. Experiments were performed in duplicate or triplicate.

[1] = system: inflammatory cell recruitment in bronchoalveolar lavage; assay: Bronchoalveolar lavage cell counts, OVA allergic inflammation model; type: in vivo, BALB/c mice
Protocol: All experiments used female BALB/c mice, 6- to 8-weeks-old. Mice were kept in individually ventilated cages and all experiments were conducted under UK Home Office guidelines. Mice were sensitized (day 0) and boosted (day 14) i.p. with 20 μg OVA (Grade V, Sigma) adsorbed to 9% potassium alum. Mice were either challenged on day 28 and 30 with 50 μg OVA or PBS by the intratracheal route or were challenged with 1% OVA or PBS by aerosol for 30 min on day 28 to day 30. […] Necropsies were performed 24 hr after the final airway challenge. […] Total cell numbers were counted and cytospins prepared for differential cell counts, which were assessed by morphology following Diff Quick staining ([…]). BALF was centrifuged at 1200 × g and supernatant stored at -20°C for further analysis.

lung chitinase activity = assay: Chitinase activity in lung homogenates, OVA allergic inflammation model; type: in vivo, BALB/c mice
Protocol: Samples were incubated with substrate (0.022 mM in 100 mM citric acid, 200 mM sodium phosphate buffer [pH 5.2]) in a final volume of 50 μL. After a 10 min incubation at 37°C, the reaction was stopped with the addition of 500 μl sodium carbonate buffer (0.5 M sodium carbonate and 0.5 M sodium bicarbonate [pH 10.6]). Liberated 4-[…] was quantified using a microplate fluorometer (excitation 360 nm/emission 440 nm). Ki and IC50 values were determined in the presence of different concentrations of inhibitor. Experiments were performed in duplicate or triplicate. All experiments used female BALB/c mice, 6- to 8-weeks-old. Mice were kept in individually ventilated cages and all experiments were conducted under UK Home Office guidelines. Mice were sensitized (day 0) and boosted (day 14) i.p. with 20 μg OVA (Grade V, Sigma) adsorbed to 9% potassium alum. Mice were either challenged on day 28 and 30 with 50 μg OVA or PBS by the intratracheal route or were challenged with 1% OVA or PBS by aerosol for 30 min on day 28 to day 30. […] Necropsies were performed 24 hr after the final airway challenge. Protein from dissected lung was homogenized (TissueLyser, QIAGEN) in lysis buffer containing protease cocktail inhibitor (Sigma). Samples were incubated for 20 min on ice, prior to centrifugation 10,000 × g to removed cell debris. Protein amounts were quantified with Coomassie (Bradford) Reagent. […]

[2] = biological target: human chitotriosidase (hCHIT1) (Homo sapiens, UniProt Q13231); assay: Chitinase activity assay with fluorescent 4-MU substrate, hCHIT1; type: biochemical; details: read-out: IC50 against hCHIT1
human chitotriosidase (hCHIT1), sequence (Q13231 22-466): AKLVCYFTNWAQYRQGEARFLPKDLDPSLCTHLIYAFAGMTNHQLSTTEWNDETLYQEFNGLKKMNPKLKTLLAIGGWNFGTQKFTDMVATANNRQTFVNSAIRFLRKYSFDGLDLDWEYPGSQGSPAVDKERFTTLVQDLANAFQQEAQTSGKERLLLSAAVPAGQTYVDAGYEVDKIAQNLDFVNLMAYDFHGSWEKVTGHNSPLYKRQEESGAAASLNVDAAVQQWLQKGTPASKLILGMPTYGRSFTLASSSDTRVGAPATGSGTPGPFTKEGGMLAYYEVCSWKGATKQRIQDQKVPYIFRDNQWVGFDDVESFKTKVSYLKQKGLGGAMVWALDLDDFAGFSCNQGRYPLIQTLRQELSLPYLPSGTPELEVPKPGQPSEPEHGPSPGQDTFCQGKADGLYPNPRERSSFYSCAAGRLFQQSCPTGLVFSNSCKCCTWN

[3] = system: OVA-specific tLN cell cultures; assay: Cytokine and chemokine secretion from draining tLN cell cultures (Luminex); type: in vivo, BALB/c mice
Protocol: All experiments used female BALB/c mice, 6- to 8-weeks-old. Mice were kept in individually ventilated cages and all experiments were conducted under UK Home Office guidelines. Mice were sensitized (day 0) and boosted (day 14) i.p. with 20 μg OVA (Grade V, Sigma) adsorbed to 9% potassium alum. Mice were either challenged on day 28 and 30 with 50 μg OVA or PBS by the intratracheal route or were challenged with 1% OVA or PBS by aerosol for 30 min on day 28 to day 30. […] Necropsies were performed 24 hr after the final airway challenge.
The draining thoracic lymph nodes (tLN) were dissected and single-cell suspensions made before being plated out at 1 × 10^6 cells/mL in 96-well plates (RPMI 1640 supplemented with L-glutamine, penicillin streptomycin, and FCS). Cells were stimulated with 500 μg/mL OVA and incubated for 72 hr at 37°C, 5% CO2. MIP-1α levels were measured in cell-free supernatants using a Luminex kit (Invitrogen) and samples were read with a Luminex 100 multiplex bead array system.

[4] = 5 mg/kg i.p., OVA-challenged mice

Cn1cnc2c1c(=O)n(CCCn1c(=O)c3[nH]cnc3n(C)c1=O)c(=O)n2C [bisdionin F]
IC50 (recombinant mAMCase): 2.21 µM and 2.2 µM | increase in neutrophil cell number in BALF vs vehicle-treated OVA-challenged mice ([1]; 5 mg/kg i.p.): 4 fold | number of eosinophils in BALF [1, 4]: reduction | number of lymphocytes in BALF [1, 4]: reduction | total cell airway infiltrates (BALF) ([1]; 5 mg/kg i.p., OVA-challenged mice, vs vehicle, p < 0.01): significantly reduced | total cell numbers (BALF) in PBS-challenged animals ([1]; 5 mg/kg i.p., PBS-challenged mice): not altered | eosinophilia of OVA-challenged mice ([1]; 1 and 5 mg/kg i.p.): reduced | increase in neutrophil cell number in BALF ([1]; 1 and 5 mg/kg i.p., OVA-challenged mice): 2- to 4 fold | reduction of eosinophil recruitment ([1]; doses that decreased penH in allergic animals): approximately 50% | chitinase activity in the lungs (lung chitinase activity; 5 mg/kg i.p., control PBS and OVA-challenged mice, about 24 hr after last challenge): significantly reduced | lowest dose at which any chitinase inhibition was observed (lung chitinase activity; i.p., allergic mice): 1 mg/kg | IC50 ([2]; listed as Bisdionin F): 17.1 ± 1 µM | IC50 [2]: 17 µM | MIP-1α secretion from tLN cell cultures ([3]; 5 mg/kg i.p., OVA-challenged animals, 72 hr culture): enhanced | IL-17 secretion in tLN cultures ([3]; allergic mice, data not shown): not significantly altered | KC secretion in tLN cultures ([3]; allergic mice, data not shown): not significantly altered
